Common to all, as to type: biochemical
The target in one assay is FXa (Homo sapiens, UniProt P00742). Briefly: Determination of selectivity: FXa inhibition (chromogenic substrate S2765). Conditions: fold selectivity for FXIIa over FXa (human); category. As to the method: (§1) The activities of the compounds of the invention have been determined in vitro using the following assays protocols for the screening of activity of FXIIa and other proteases. Each of these assays were performed in a purified system employing the use of chromogenic assays in microplate plate wells. Chromogenic peptide substrates mimicking natural protein substrates are attached via an amide bond to a chromogenic group. Paranitroaniline (pNA) is released from the peptide following catalyses by the proteolytic enzyme; the absorbance increases and can be monitored at 405 nm.
Chain of FXa (P00742 235-488 limits assumed): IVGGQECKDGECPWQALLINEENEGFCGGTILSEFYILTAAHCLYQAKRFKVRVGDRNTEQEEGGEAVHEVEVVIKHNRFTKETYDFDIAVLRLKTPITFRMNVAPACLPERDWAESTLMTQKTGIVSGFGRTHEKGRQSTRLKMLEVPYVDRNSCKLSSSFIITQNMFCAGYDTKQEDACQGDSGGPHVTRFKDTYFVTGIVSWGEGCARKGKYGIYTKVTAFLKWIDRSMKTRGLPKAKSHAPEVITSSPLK
Chain of FXa (P00742 41-179 partner limits assumed): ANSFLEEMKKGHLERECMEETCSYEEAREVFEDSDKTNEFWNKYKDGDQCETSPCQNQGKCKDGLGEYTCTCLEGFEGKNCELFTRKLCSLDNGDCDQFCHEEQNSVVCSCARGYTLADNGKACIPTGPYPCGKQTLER
(§2) All compounds were dissolved in 100% (v/v) DMSO to a stock concentration of 10 mM, the highest concentration of compound used in each assay is 500 μM. The final concentrations of DMSO were 5% (v/v) in 50 mM Tris 137 mM NaCl pH 7.4. Where no test compound was added a final concentration of 5% DMSO was employed.
(§3) To determine selectivity of test compounds, these test compounds were assayed for inhibitory activity against other serine proteases including FXa and thrombin. Essentially compounds at increasing concentrations were incubated with each enzyme: FXa (5 nM) and thrombin (5 nM), for 10 mins at 37° C. followed by the appropriate chromogenic substrate, S2765 (Chromogenix) and GPR (Bachem) respectively in 50 mM Tris, 137 mM NaCl, pH 7.4. Substrates were used at a concentration equal to the appropriate experimentally derived KM. Kinetic readings at 405 nm were monitored every 12 secs for a total duration of 3 hours at 37° C. Gradients of initial rates were determined and employed to calculate IC50 values. Values of IC50 were converted to Ki values based on the formula:
(§4) Ki═IC50/(1+[Substrate]/Km)
(§5) Where [Substrate] denotes the concentration of substrate used in the assay and Km is the determined value of each enzyme with its own substrate.
The fold selectivity for FXIIa over FXa for the compounds of the invention has been categorised based on the fold selectivity values, the categories being “o”, “oo” and “ooo”. The category “o” refers to fold selectivity values less than 10 (e.g. a fold selectivity value of less than 10 and greater than 1). The category “oo” refers to a fold selectivity value of 10 to 100. The category “ooo” refers to fold selectivity values greater than 100.

The target in a further assay is T1, FXIIa (Homo sapiens, UniProt P00748).
T1 construct: FXIIa alpha
T1 sequence (P00748 373-615 limits assumed): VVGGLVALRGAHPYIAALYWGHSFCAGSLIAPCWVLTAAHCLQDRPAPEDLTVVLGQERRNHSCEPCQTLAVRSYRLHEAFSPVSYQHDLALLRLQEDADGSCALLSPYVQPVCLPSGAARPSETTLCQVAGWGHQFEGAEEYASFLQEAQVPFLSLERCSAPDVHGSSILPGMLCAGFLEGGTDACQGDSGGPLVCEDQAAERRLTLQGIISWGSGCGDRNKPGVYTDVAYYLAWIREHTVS
T1 sequence (P00748 20-372 partner limits assumed): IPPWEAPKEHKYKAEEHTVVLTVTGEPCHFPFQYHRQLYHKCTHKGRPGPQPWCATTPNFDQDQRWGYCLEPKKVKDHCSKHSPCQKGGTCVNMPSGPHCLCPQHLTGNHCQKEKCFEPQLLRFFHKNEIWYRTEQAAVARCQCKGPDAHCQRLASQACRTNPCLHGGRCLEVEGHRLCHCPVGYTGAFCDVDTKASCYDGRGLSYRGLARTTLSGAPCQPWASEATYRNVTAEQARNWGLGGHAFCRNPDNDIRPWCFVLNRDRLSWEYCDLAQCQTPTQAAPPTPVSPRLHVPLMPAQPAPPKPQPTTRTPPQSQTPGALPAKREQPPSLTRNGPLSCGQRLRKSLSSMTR
Description: Determination of Factor XIIa inhibition (chromogenic substrate S-2302). To be noted: human FXIIa alpha, Ki category. Here is the method: as §1, §2
Factor XIIa activity was measured using a chromogenic substrate S-2302 (Chromogenix). Various concentrations of compound were incubated with 10 nM of FXIIa and incubated at 37° C. for 10 minutes in 50 mM Tris, 137 mM NaCl, pH 7.4, prior to the addition of the chromogenic substrate S-2302 at a concentration equal the to the experimentally derived KM. Kinetic readings at 405 nm were monitored every 12 secs for a total duration of 3 hours at 37° C. Gradients of initial rates were determined and employed to calculate IC50 values.
The activity of the compounds of the invention has been categorised based on the Ki values, the categories being “†”, “*”, “**” and “***”. […] The category “**” refers to compounds with a Ki value of 0.2 μM to 0.8 μM.
as §4, §5

Another assay deals with T2, thrombin (Homo sapiens, UniProt P00734).
T2 construct: FXa (5 nM) and thrombin (5 nM)
Description: Determination of selectivity: thrombin inhibition (chromogenic substrate GPR). Conditions: fold selectivity for FXIIa over thrombin (human); category. Here is the method:
as §1, §2, §3, §4, §5
The fold selectivity for FXIIa over thrombin for the compounds of the invention has been categorised based on the fold selectivity values, the categories being “+”, “++” and “+++”. The category “+” refers to fold selectivity values less than 10 (e.g. a fold selectivity value of less than 10 and greater than 1). The category “++” refers to a fold selectivity value of 10 to 100. The category “+++” refers to fold selectivity values greater than 100.

pKi: −log10 of the molar value.

Usually pKi stands for the Ki on a negative log10 scale, so that one unit is a factor of ten. As for `Cc1ccc(C[C@@H]2C[C@@H](C(=O)NCc3ccc4c(cnn4C)c3)N(C(=O)[C@@H]3NCCC[C@@H]3C(=O)N3CC[C@@H](N(C)C)C3)C2)cc1` [Example M06010, (2S,4R)-1-((2R,3S)-3-((R)-3-(dimethylamino)pyrrolidine-1-carbonyl)piperidine-2-carbonyl)-N-((1-methyl-1H-indazol-5-yl)methyl)-4-(4-methylbenzyl)pyrrolidine-2-carboxamide], at FXa, the “FXa (human)/FXIIa alpha (human)” value was “∘∘∘”. At FXIIa, this compound showed a pKi of 6.10 to 6.70. In addition, the “Thrombin (human)/FXIIa alpha (human)” value at thrombin is “+++ (fold selectivity values greater than 100)”.
In the same order, the values of `Cc1ccc(C[C@@H]2C[C@@H](C(=O)NCc3ccc4c(cnn4C)c3)N(C(=O)[C@@H]3NCCC[C@@H]3C(=O)N3CCOCC3)C2)cc1` [Example M05753, (2S,4R)—N-((1-methyl-1H-indazol-5-yl)methyl)-4-(4-methylbenzyl)-1-((2R,3S)-3-(morpholine-4-carbonyl)piperidine-2-carbonyl)pyrrolidine-2-carboxamide] are “∘∘∘”, 6.10 to 6.70 and “++ (a fold selectivity value of 10 to 100)”.
`Cc1ccc(C[C@@H]2C[C@@H](C(=O)NCC3Cc4ccncc4C3)N(C(=O)[C@@H]3NCCC[C@@H]3C(=O)N3CCCC3)C2)cc1` (stereo partly drawn) [Example M05764, (2S,4R)-N-((6,7-dihydro-5H-cyclopenta[c]pyridin-6-yl)methyl)-4-(4-methylbenzyl)-1-((2R,3S)-3-(pyrrolidine-1-carbonyl)piperidine-2-carbonyl)pyrrolidine-2-carboxamide]: at FXa, the “FXa (human)/FXIIa alpha (human)” value is “∘∘∘”. Further, the negative-log Ki (pKi) on FXIIa was above 6.70. Besides, on thrombin, the “Thrombin (human)/FXIIa alpha (human)” value is reported as “+++ (fold selectivity values greater than 100)”.
On to `Cc1ccc(C[C@@H]2C[C@@H](C(=O)NCc3ccc4c(cnn4C)c3)N(C(=O)[C@H]3[C@@H](C(=O)N4CCCC4)CCCN3C)C2)cc1` [Example M05757, (2S,4R)—N-[(1-methylindazol-5-yl)methyl]-1-[(2R,3S)-1-methyl-3-(pyrrolidine-1-carbonyl)piperidine-2-carbonyl]-4-(p-tolylmethyl)pyrrolidine-2-carboxamide], for which, at FXa, the “FXa (human)/FXIIa alpha (human)” value is listed as “∘∘∘”. The same compound showed a pKi at FXIIa above 6.70. For the same compound, the “Thrombin (human)/FXIIa alpha (human)” value on thrombin is on record as “+++ (fold selectivity values greater than 100)”.
Consider `CN(CCN1CCCC1)C(=O)[C@H]1CCCN[C@H]1C(=O)N1C[C@@H](C(F)(F)F)C[C@H]1C(=O)NCc1ccc2c(cnn2C)c1` [Example M06085, (2R,3S)-N-methyl-2-((2S,4S)-2-(((1-methyl-1H-indazol-5-yl)methyl)carbamoyl)-4-(trifluoromethyl)pyrrolidine-1-carbonyl)-N-(2-(pyrrolidin-1-yl)ethyl)piperidine-3-carboxamide], for which the “FXa (human)/FXIIa alpha (human)” value on FXa was “∘∘∘”. The pKi on FXIIa was above 6.70. The “Thrombin (human)/FXIIa alpha (human)” value at thrombin is reported as “+++ (fold selectivity values greater than 100)”.
Regarding `[2H]C([2H])([2H])n1ncc2cc(CNC(=O)[C@@H]3C[C@@H](Cc4ccc(C)cc4)CN3C(=O)[C@@H]3NCCC[C@@H]3C(=O)N3CCCC3)ccc21` [Example M05820, (2S,4R)-N-((1-(methyl-d3)-1H-indazol-5-yl)methyl)-4-(4-methylbenzyl)-1-((2R,3S)-3-(pyrrolidine-1-carbonyl)piperidine-2-carbonyl)pyrrolidine-2-carboxamide], the “FXa (human)/FXIIa alpha (human)” value on FXa is reported as “∘∘∘”. On FXIIa, this compound gave a pKi above 6.70. In addition, the “Thrombin (human)/FXIIa alpha (human)” value on thrombin is “+++ (fold selectivity values greater than 100)”.
Regarding `Cc1ccc(C[C@@H]2C[C@@H](C(=O)NCc3ccc4c(cnn4C)c3)N(C(=O)[C@@H]3NCCC[C@@H]3C(=O)N3CCNCC3)C2)cc1` [Example M05754, (2S,4R)-N-((1-methyl-1H-indazol-5-yl)methyl)-4-(4-methylbenzyl)-1-((2R,3S)-3-(piperazine-1-carbonyl)piperidine-2-carbonyl)pyrrolidine-2-carboxamide], at FXa, the “FXa (human)/FXIIa alpha (human)” value was “∘∘∘”. The same compound showed a pKi on FXIIa of 6.10 to 6.70. Moreover, the “Thrombin (human)/FXIIa alpha (human)” value at thrombin is on record as “+++ (fold selectivity values greater than 100)”.
In the same order, the values of `COc1ccc(CNC(=O)[C@@H]2C[C@@H](Cc3ccc(C)cc3)CN2C(=O)[C@@H]2NCCC[C@@H]2C(=O)N2CCCC2)cc1` [Example M05965, (2S,4R)-N-[(4-methoxyphenyl)methyl]-4-(p-tolylmethyl)-1-[(2R,3S)-3-(pyrrolidine-1-carbonyl)piperidine-2-carbonyl]pyrrolidine-2-carboxamide] are “∘∘”, at most 5.30 and “++ (a fold selectivity value of 10 to 100)”.
For `COc1ccc(C[C@@H]2C[C@@H](C(=O)NCc3ccc4c(cnn4C)c3)N(C(=O)[C@@H]3NCCC[C@@H]3C(=O)N3CCCC3)C2)cn1` [Example M05875, (2S,4R)-4-((6-methoxypyridin-3-yl)methyl)-N-((1-methyl-1H-indazol-5-yl)methyl)-1-((2R,3S)-3-(pyrrolidine-1-carbonyl)piperidine-2-carbonyl)pyrrolidine-2-carboxamide], in that order: “∘∘∘”, 6.10 to 6.70 and “+++ (fold selectivity values greater than 100)”.
`Cn1ncc2cc(CNC(=O)[C@@H]3C[C@@H](Cc4ccc(C5CC5)nn4)CN3C(=O)[C@@H]3NCCC[C@@H]3C(=O)N3CCCC3)ccc21` [Example M05997, (2S,4S)-4-[(6-cyclopropylpyridazin-3-yl)methyl]-N-[(1-methylindazol-5-yl)methyl]-1-[(2R,3S)-3-(pyrrolidine-1-carbonyl)piperidine-2-carbonyl]pyrrolidine-2-carboxamide]: on FXa, the “FXa (human)/FXIIa alpha (human)” value was “∘∘∘”. Moreover, the pKi at FXIIa is 6.10 to 6.70. Further, the “Thrombin (human)/FXIIa alpha (human)” value at thrombin is on record as “+++ (fold selectivity values greater than 100)”.
On to `Cn1nnc2cc(CNC(=O)[C@@H]3C[C@@H](Cc4ccc(C5CC5)cc4)CN3C(=O)[C@@H]3NCCC[C@@H]3C(=O)N3CCCC3)ccc21` [Example M05934, (2S,4R)-4-(4-cyclopropylbenzyl)-N-((1-methyl-1H-benzo[d][1,2,3]triazol-5-yl)methyl)-1-((2R,3S)-3-(pyrrolidine-1-carbonyl)piperidine-2-carbonyl)pyrrolidine-2-carboxamide], for which the “FXa (human)/FXIIa alpha (human)” value at FXa is “∘∘∘”. On FXIIa, this compound showed a pKi above 6.70. Besides, the “Thrombin (human)/FXIIa alpha (human)” value on thrombin was “+++ (fold selectivity values greater than 100)”.

Values taken from US20240294498A1, “FACTOR XIIA INHIBITORS” (Lunac Therapeutics Ltd, priority 2021, published 2024).
